Measured values published in US11053608B2, “Combinatorial derivatives of RNA oligonucleotides” (priority 2017, dated 2021).

Key:
skin wounds = assay: Wound healing activity; assay type: in vivo, male Vistar white rats
Procedure: The study of the wound healing properties of the compositions was carried out on male Vistar white rats. In 38 animals that were anesthetized with diethyl ether for 2-4 min., A 2 by 2 cm skin area was cut out on the dorsal side of the body, behind the right shoulder blade. The skin was taken with tweezers, it was pulled back, the skin fragment was cut 2 cm in size, wound depth 2 mm, the average area of the wound was 4±1.0 cm^2.
The resulting wounds of a polygonal shape were intensively bleeding. Then the wounds of animals first and second groups (10 in each), D1 and D2 compositions were applied.
The wounds of rats of the 3rd group were treated with Dexpanthenol (DP), the 4th group of 8 animals was the control group, the wounds of these animals were not treated. The compositions in contact with blood formed a gel form, it was covering entire surface of the wound and capture a small fragment of surrounding skin around the wound.
The glue BF-6 was applied on top of the gel, dried and the animals were released into cells.
The planimetric studies of the wounds were carried out from 1st day of experiment on the 3rd, 6th, 9th, 11th, and 13th days, which made it possible to judge the features of reparative processes.
The measurement of the area of the wounds was carried out as follows: on the celluloid film which was covering the wound entirely, contours were applied, after which the area of the wound surface was determined using graph paper.

HeLa-2 tumor cells = assay: Minimum active dose and cytopathic effect in HeLa-2 cell culture; assay type: cell-based; conditions: minimum amount causing degeneration of 90-95% of the cells; medium 199; monitored 5 days
Procedure: Determination of the anticancer activity of MATR in the cell culture was performed in a HeLa-2 cell culture. The different amount of MATR from 2 to 12 μg/ml of medium was added to medium 199. (see table 1). For the control a culture was without MATR. Cell cultures were monitored for 5 days with daily viewing. The minimum active dose (MAD) of MATR was considered to be its minimum amount, which caused degeneration of 90-95% of the cells (Table 2)

[1] = Toxic dose LD50 and lethal dose LD100; assay type: in vivo
Procedure: The compositions (MATR and Taxotere) were administered intraperitoneally three times with an interval of two hours in 0.5 ml. For MATR injection aqueous solution was used. The total doses of the compositions were 34.0, 68.0, 84.0, 102.0 and 136 mg/kg. The number of dead animals in each group was confirmed every 24-48 hours. The calculation of the toxic dose, LD50, was carried out according to the protocol. The lethal dose, […], was determined experimentally.

Schwez leukemia = assay: Antitumor activity on Shvets leukemia; assay type: in vivo, Outbred white rats; conditions: injected dose 9.1*3 = 27.3 mg/kg intraperitoneal

Structure (SMILES) | Wound Area (S) during the observation (skin wounds; 1-3 days) | Wound Area (S) during the observation (skin wounds; 3-6 days) | Wound Area (S) during the observation (skin wounds; 6-9 days) | Wound Area (S) during the observation (skin wounds; 9-11 days) | Wound Area (S) during the observation (skin wounds; 11-13 days) | MAD (minimum active dose) (HeLa-2 tumor cells) | LD50 ([1]; in vivo, intraperitoneal) | toxicity of the control compound (dose in brackets) ([1]; intraperitoneally three times with an interval of two hours) | Tumor volume (Schwez leukemia)
CC(C)(CO)[C@@H](O)C(=O)NCCCO [DP, Dexpanthenol] | 4.1 ± 1.0 cm2 | 3.2 ± 0.3 cm2 | 2.4 ± 0.3 cm2 | 1.0 ± 0.3 cm2 | 0.3 ± 0.1 cm2 | – | – | – | –
CC(=O)O[C@@]12CO[C@@H]1C[C@H](O)[C@@]1(C)C(=O)[C@H](O)C3=C(C)[C@@H](OC(=O)[C@H](O)[C@@H](NC(=O)OC(C)(C)C)c4ccccc4)C[C@@](O)([C@@H](OC(=O)c4ccccc4)[C@H]21)C3(C)C [Taxotere] | – | – | – | – | – | 10 µg/mL | 120 mg/kg | 120 mg/kg | 0.73 cm3
